Experimental data: PubChem BioAssay AID493060 (The Scripps Research Institute Molecular Screening Center, 2011)
pEC50: −log10 of the molar value. Active and inactive are the calls of the source. No rule for the calls is given here.

Molecular target: Aryl hydrocarbon receptor (Homo sapiens) (UniProt P35869)
Experiment: AHR activator potency, dose response, cell-based, luminescence, luciferase reporter, human (AID 493060)
Details: Human cell line AHR-responsive luciferase reporter

Aryl hydrocarbon receptor (Homo sapiens), sequence (P35869 whole entry, looked up): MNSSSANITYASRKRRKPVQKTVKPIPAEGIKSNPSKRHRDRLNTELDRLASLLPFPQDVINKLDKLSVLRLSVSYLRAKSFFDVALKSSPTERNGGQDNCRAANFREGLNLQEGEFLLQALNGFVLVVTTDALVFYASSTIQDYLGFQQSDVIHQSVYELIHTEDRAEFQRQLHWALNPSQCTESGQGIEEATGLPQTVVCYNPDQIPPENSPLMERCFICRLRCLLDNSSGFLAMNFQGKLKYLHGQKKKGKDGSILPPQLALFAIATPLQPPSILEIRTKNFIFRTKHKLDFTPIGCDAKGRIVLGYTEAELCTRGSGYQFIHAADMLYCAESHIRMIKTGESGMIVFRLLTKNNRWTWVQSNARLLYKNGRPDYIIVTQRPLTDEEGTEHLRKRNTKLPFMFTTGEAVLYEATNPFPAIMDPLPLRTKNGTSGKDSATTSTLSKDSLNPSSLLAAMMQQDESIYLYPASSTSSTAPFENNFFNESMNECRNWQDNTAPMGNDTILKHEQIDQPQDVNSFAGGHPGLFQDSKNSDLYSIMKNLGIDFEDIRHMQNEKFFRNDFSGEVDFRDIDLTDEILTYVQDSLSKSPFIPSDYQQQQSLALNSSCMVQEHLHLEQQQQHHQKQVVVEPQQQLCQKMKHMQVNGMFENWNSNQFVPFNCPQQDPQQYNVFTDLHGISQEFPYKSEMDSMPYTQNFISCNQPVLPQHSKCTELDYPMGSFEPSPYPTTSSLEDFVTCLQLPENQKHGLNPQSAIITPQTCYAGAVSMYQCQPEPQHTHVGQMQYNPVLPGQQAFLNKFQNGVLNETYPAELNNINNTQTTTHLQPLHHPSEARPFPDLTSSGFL

Compound | pEC50 | EC50
Cn1c(C(=O)N2CCC(C(N)=O)CC2)cc2cc(Cl)ccc21 | 6.59 | –
COc1cc2ccccc2cc1C(=O)Nc1ccc(C)cc1 | 6.13 | –
Cc1csc(SCC(=O)Nc2ccc(Cl)cn2)n1 | 6.17 | –
CCOc1ccc(NC(=O)c2cc3ccccc3cc2OC)cc1 | 5.75 | –
CCC(=O)Nc1cc(OC)c(NC(=O)c2ccccc2)cc1OC | 5.60 | –
COC(=O)c1ccccc1NC(=O)Cn1ccnc1 | 5.59 | –
CCCC(=O)Nc1nn(C)c2nc3cc(C)ccc3cc12 | 6.60 | –
COc1ccc(NC(=O)c2cccc3c(Br)cccc23)cc1 | 5.73 | –
CCOc1ccc(-c2cc(C)n3nc(C(N)=O)cc3n2)cc1 | 5.87 | –
Cc1ccccc1-c1nc(-c2cccnc2)no1 | 5.88 | –
CN1CCN(CCCNC(=O)c2cc3c(-c4ccc(Cl)cc4)nn(C)c3s2)CC1 | 6.55 | –
Cc1ccc(-c2cc(-c3cccs3)[nH]n2)c(O)c1 | 6.07 | –
COc1ccccc1NC(=O)Nc1cccnc1 | 5.83 | –
Cc1nc(N)nc(Nc2ccc(Cl)cc2)c1Br | 5.85 | –
Cc1cc(Nc2ccc(Br)cc2)n2nc(C)nc2n1 | 6.66 | –
CCOc1ccccc1NC(=O)c1ccc2nccnc2c1 | 5.55 | –
Cn1c(N)c(C(=O)Nc2ccccc2F)sc1=S | 6.12 | –
COc1ccccc1C(=O)Nc1ccc(N2CCCCC2)cc1 | 5.53 | –
CC(=O)c1ccc(NC(=O)c2cc(Cl)nc3ccccc23)cc1 | 6.01 | –
COc1cc2c(cc1NC(=O)Nc1ccc(C)cc1)oc1ccccc12 | 6.05 | –
COc1ccc(Cl)cc1C(=O)Nc1ccc(N(C)C(C)=O)cc1 | 5.62 | –
Cc1ccc(Nc2ncccc2C(N)=O)cc1 | 5.95 | –
CCOC(=O)Cc1cc(-c2ccc(O)cc2)nc2ccc3ccccc3c12 | 5.97 | –
O=C(Nc1ccon1)c1cnc2sccn2c1=O | – | inactive
COc1ccccc1NC(=O)c1ccc2c(c1)nnn2C | 6.86 | –
CN(C)c1nc(N)nc(-c2nc3ccccc3s2)n1 | 5.48 | –
O=C(CN1CCOCC1)Nc1nc2ccc([N+](=O)[O-])cc2s1 | 5.20 | –
O=C1c2ccccc2-c2nc3ccccc3nc21 | 5.49 | –
Cc1c(-c2ccn[nH]2)cc(NC(=O)c2ccc(Cl)cc2)c(=O)n1N | 6.29 | –
COc1ccc(C(=O)Nc2cc(OC)c(NC(=O)c3ccco3)cc2OC)cc1 | 5.79 | –
